Reference: patent US5663150A, “Cyclopentane-β-amino acid tripeptides” (Bayer Aktiengesellschaft, priority 1995, dated 1997)

Test system: C. albicans
Experiment: systemic mouse candidiasis, in-vivo antimycotic activity
Conditions: male CFW1 mice infected i.v. with 3×10^5 CFU C. albicans; 50 mg/kg 2 × daily p.o. for 5 days; survival up to 10th day p.i.; 10 animals per group
Method: Testing of in-vivo activity
The test model for antimycotic in-vivo actions used was systemic mouse candidias is:
Male CFW1 mice of weight 20 g were infected in the tail vein by injection of 3×10^5 CFU of C. albicans per animal.
Untreated control animals died completely within one week post-infectionem (p.i.) of a generalized candidiasis with granuloma formation in the kidneys. For activity testing, the preparations, dissolved in a 0.2% strength aqueous glucose-agar solution, were administered orally by stomach tube to the infected animals twice daily.
The daily doses were 2×50 mg/kg of body weight (BW), the treatment period was 5 days.
The survival rates of the treated animals were noted daily up to the 10th day p.i. In the case of the untreated control animals, no animals survived at this point.
For the preparations, 10 animals each were employed per dose and control group.

C=C1C[C@H](NC(=O)[C@@H](NC(=O)[C@@H](N)C(C)CC)C(C)CC)[C@H](C(=O)O)C1 (relative stereo) [Example 1, (-)-1,2-cis-(2-((S)-Isoleucyl)-(S)-isoleucylamino)-4-methylenecyclopentane-1-carboxylic acid]
Number of surviving animals: 8/10
